Laboratory results published in PubChem BioAssay AID1963869 (Molecular Pharmacology Branch, DTP, NCI, 2024).
Values joined by “and” are separate entries in the source; they are usually repeats but may differ in a detail not shown here. Equal entries are not always repeated.

System: KRAS patient-derived spheroids with HUVEC/MSC, viability
Test: Anticancer human tumor 323965-272-R-J2-PDC patient-derived pancreatic carcinoma cell line growth inhibition [KRAS2]
Conditions: for viability, T/C: stronger effect = lower value
Description: Multicellular complex tumor spheroid response to RAS pathway inhibitors in combination with a targeted agents in patient-derived cell lines with oncogenic KRAS variants from multiple cancer types
A high-throughput screen of multi-cell type tumor spheroids was designed to identify active combinations of targeted small molecules and KRAS pathway inhibitors. Complex spheroids include a stromal component modeled by human endothelial cells (HUVEC) and fibroblasts modeled by human mesenchymal stem cells (MSCs). The concentration ranges selected for each drug and investigational agent were based upon clinically achievable concentrations if the clinical Cmax of the agent was known.
Compounds. The drugs and investigational agents: BI-3406 (NSC825286), BAY-293 (NSC824723), batoprotafib (TNO155; NSC825523), sotorasib (AMG 510; NSC818433), MRTX1257 (NSC819558), elimusertib (BAY 1895344; NSC800525), molibresib (GSK525762; NSC774829), temuterkib (LY3214996; NSC803410), venetoclax (NSC766270), alisertib (NSC759677), olaparib (NSC753686), talazoparib (NSC767125), erdafitinib (NSC781556), ipatasertib (NSC767898), cabozantinib (NSC761068), nintedanib (NSC756659), abemaciclib (NSC768073), docetaxel (NSC628503), trametinib (NSC758246), and sapanisertib (NSC764658) were obtained from the National Cancer Institute (NCI) Developmental Therapeutics Program Chemical Repository. The FDA-approved anticancer drug set is available from the Developmental Therapeutics Program. […] The stock solutions were prepared in dimethyl sulfoxide (DMSO, Sigma-Aldrich, St. Louis, MO, cat. D2650) at 800-fold the tested concentration and stored at -70 degrees C prior to their use. All drugs and investigational agents were tested over a range starting from a high concentration at or near the clinical Cmax and decreasing in half-log increments. If the clinical Cmax for an agent had not been determined, the highest concentration tested was 10 microM.
Cell Culture. All cells were maintained in an incubator at 37 degrees C and 5% CO2 with 95% humidity. The PDC lines were cultured according to standard operating procedures established by the NCI PDMR (https://pdmr.cancer.gov/sops/default.htm). Briefly, all PDCs were thawed and cultured in Matrigel-coated flasks prepared with a working solution of 1X Ham's F-12 nutrient mix, without supplementation (Invitrogen, Waltham, MA, cat. 11765054), 100 U/mL penicillin-streptomycin (Invitrogen, cat. 15140122), and 2.5% Matrigel (Corning Inc., Corning, NY, cat. 354248) for the first three passages. All PDCs were cultured in complete DMEM/F-12 media containing advanced DMEM/F-12 (Invitrogen, cat. 12634028), 4.9% defined fetal bovine serum, heat inactivated (HyClone Laboratories Inc., Logan, UT, cat. SH30070.03HI), 389 ng/mL hydrocortisone (Sigma-Aldrich, cat. H4001), 9.7 ng/mL human EGF recombinant protein (Invitrogen, cat. PHG0313), 23.4 microg/mL adenine (Sigma-Aldrich, cat. A2786), 97.3 U/mL penicillin-streptomycin (Invitrogen, cat. 15140122), 1.9 mM L-glutamine (Invitrogen, cat. 25030081), and 9.7 microM Y-27632 dihydrochloride (Tocris Bioscience, Bristol, United Kingdom, cat. 1254). The PDCs were cultured in complete DMEM/F12 media without 9.7 microM Y-27632 dihydrochloride for at least two passages prior to the screen. The established cell line HOP-62 was cultured in RPMI 1640 medium, HEPES (Invitrogen, cat. 22400105) with 10% defined fetal bovine serum (HyClone Laboratories Inc., cat. SH30070.03) and 2 mM L-glutamine (Invitrogen, cat. 25030081). The pooled donor HUVEC were cultured in endothelial cell growth medium 2 (PromoCell, Heidelberg, Germany, cat. C-22011) and the hMSC were cultured in mesenchymal stem cell growth medium 2 (PromoCell, cat. C-28009). For all experiments, HUVEC and hMSC were used at passages </=5, while the malignant cell lines were used at passages </=15. […]
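Also: spheroids exposed to agents for 7 days.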
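For viability, T/C in this document: 100% = DMSO vehicle control viability.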

Q: With `COc1cc2nccc(Oc3ccc(NC(=O)C4(C(=O)Nc5ccc(F)cc5)CC4)cc3)c2cc1OC` as the compound, how does the viability, T/C (compound 0.0316 µM) read?
A: The viability, T/C was 100% [middle of 5 runs].

Q: And the viability, T/C (compound 0.1 µM)?
A: The viability, T/C was 104% [middle of 5 runs].

Q: And the viability, T/C (compound 0.316 µM)?
A: Its viability, T/C is 96.2% [middle of 5 runs].

Q: And the viability, T/C (compound 1 µM)?
A: The viability, T/C was 104% (2×) and 101% (2×) and 99.7%.

Q: And the viability, T/C (compound 3.16 µM)?
A: The viability, T/C was 92.9% [middle of 5 runs].

Q: And the viability, T/C (compound 10 µM)?
A: Its viability, T/C is 87.7% [middle of 5 runs].

Q: And the IC50 (curve of compound)?
A: The IC50 was greater than 10000 nM.

Q: Which viability, T/C (compound 0.0316 µM) does the source give for `Cn1nccc1Nc1nccc(-c2cc3c(s2)C(C)(C)N(CCN2CCOCC2)C3=O)n1` here?
A: Its viability, T/C is 92.9% [middle of 5 runs].

Q: And the viability, T/C (compound 0.1 µM)?
A: Its viability, T/C is 87.8% [middle of 5 runs].

Q: What about the viability, T/C (compound 0.316 µM) of the same compound?
A: Its viability, T/C is 77.6% [middle of 5 runs].

Q: And the viability, T/C (compound 1 µM)?
A: Its viability, T/C is 61.5% [middle of 5 runs].

Q: What about the viability, T/C (compound 3.16 µM) of the same compound?
A: Its viability, T/C is 43.7% [middle of 5 runs].

Q: And the viability, T/C (compound 10 µM)?
A: The viability, T/C was 38.1% [middle of 5 runs].

Q: And the IC50 (curve of compound)?
A: The IC50 was 2.35 µM [middle of 5 runs].

Q: For `O=C(c1cc(Cc2n[nH]c(=O)c3ccccc23)ccc1F)N1CCN(C(=O)C2CC2)CC1`, which viability, T/C (compound 0.0316 µM) is on record?
A: Its viability, T/C is 102% [middle of 5 runs].

Q: And the viability, T/C (compound 0.1 µM)?
A: Its viability, T/C is 102% [middle of 5 runs].

Q: What about the viability, T/C (compound 0.316 µM) of the same compound?
A: The viability, T/C was 96.4% [middle of 5 runs].

Q: And the viability, T/C (compound 1 µM)?
A: The viability, T/C was 100% [middle of 5 runs].

Q: What about the viability, T/C (compound 3.16 µM) of the same compound?
A: The viability, T/C was 92.1% [middle of 5 runs].

Q: And the viability, T/C (compound 10 µM)?
A: Its viability, T/C is 59.7% [middle of 5 runs].

Q: And the IC50 (curve of compound)?
A: Its IC50 is greater than 10000 nM.

Q: How did the IC50 (curve of first compound, second compound 0.1 µM) turn out when `CC(=O)OC12COC1CC(O)C1(C)C(=O)C(O)C3=C(C)C(OC(=O)C(O)C(NC(=O)OC(C)(C)C)c4ccccc4)CC(O)(C(OC(=O)c4ccccc4)C21)C3(C)C` (stereo unspecified) + C=CC(=O)N1CCN(c2nc(=O)n(-c3c(C)ccnc3C(C)C)c3nc(-c4c(O)cccc4F)c(F)cc23)C(C)C1 was run?
A: Its IC50 is less than 10 nM.

Q: What about the IC50 (curve of first compound, second compound 0.316 µM) of the same compound?
A: The IC50 was less than 10 nM.

Q: What about the IC50 (curve of first compound, second compound 1 µM) of the same compound?
A: Its IC50 is less than 10 nM.

Q: And the IC50 (curve of first compound, second compound 3.16 µM)?
A: Its IC50 is less than 10 nM.

Q: What about the IC50 (curve of first compound, second compound 10 µM) of the same compound?
A: Its IC50 is less than 10 nM.

Q: What about the viability, T/C (second compound 0.1 µM, first compound 0.01 µM) of the same compound?
A: Its viability, T/C is 22.7%.

Q: What about the viability, T/C (second compound 0.1 µM, first compound 0.0316 µM) of the same compound?
A: Its viability, T/C is 21.7%.

Q: And the viability, T/C (second compound 0.1 µM, first compound 0.1 µM)?
A: Its viability, T/C is 19.9%.

Q: What about the viability, T/C (second compound 0.1 µM, first compound 0.316 µM) of the same compound?
A: Its viability, T/C is 19.2%.

Q: What about the viability, T/C (second compound 0.1 µM, first compound 1 µM) of the same compound?
A: The viability, T/C was 18.9%.

Q: What about the viability, T/C (second compound 0.1 µM, first compound 3.16 µM) of the same compound?
A: Its viability, T/C is 22.2%.

Q: And the viability, T/C (second compound 0.316 µM, first compound 0.01 µM)?
A: Its viability, T/C is 21.9%.

Q: And the viability, T/C (second compound 0.316 µM, first compound 0.0316 µM)?
A: Its viability, T/C is 21.5%.

Q: What about the viability, T/C (second compound 0.316 µM, first compound 0.1 µM) of the same compound?
A: Its viability, T/C is 21.6%.

Q: And the viability, T/C (second compound 0.316 µM, first compound 0.316 µM)?
A: The viability, T/C was 19.4%.

Q: And the viability, T/C (second compound 0.316 µM, first compound 1 µM)?
A: Its viability, T/C is 20.9%.

Q: What about the viability, T/C (second compound 0.316 µM, first compound 3.16 µM) of the same compound?
A: Its viability, T/C is 21.1%.

Q: What about the viability, T/C (second compound 1 µM, first compound 0.01 µM) of the same compound?
A: Its viability, T/C is 21.3%.

Q: What about the viability, T/C (second compound 1 µM, first compound 0.0316 µM) of the same compound?
A: Its viability, T/C is 19.2%.

Q: And the viability, T/C (second compound 1 µM, first compound 0.1 µM)?
A: The viability, T/C was 19.6%.

Q: What about the viability, T/C (second compound 1 µM, first compound 0.316 µM) of the same compound?
A: The viability, T/C was 17.4%.

Q: What about the viability, T/C (second compound 1 µM, first compound 1 µM) of the same compound?
A: Its viability, T/C is 18.7%.

Q: And the viability, T/C (second compound 1 µM, first compound 3.16 µM)?
A: The viability, T/C was 19.7%.

Q: What about the viability, T/C (second compound 3.16 µM, first compound 0.01 µM) of the same compound?
A: The viability, T/C was 19.7%.

Q: And the viability, T/C (second compound 3.16 µM, first compound 0.0316 µM)?
A: Its viability, T/C is 21.9%.

Q: And the viability, T/C (second compound 3.16 µM, first compound 0.1 µM)?
A: The viability, T/C was 17.6%.

Q: What about the viability, T/C (second compound 3.16 µM, first compound 0.316 µM) of the same compound?
A: The viability, T/C was 19.6%.

Q: And the viability, T/C (second compound 3.16 µM, first compound 1 µM)?
A: The viability, T/C was 18.9%.

Q: And the viability, T/C (second compound 3.16 µM, first compound 3.16 µM)?
A: Its viability, T/C is 18.5%.

Q: And the viability, T/C (second compound 10 µM, first compound 0.01 µM)?
A: Its viability, T/C is 21.3%.

Q: What about the viability, T/C (second compound 10 µM, first compound 0.0316 µM) of the same compound?
A: Its viability, T/C is 19.6%.

Q: What about the viability, T/C (second compound 10 µM, first compound 0.1 µM) of the same compound?
A: The viability, T/C was 19.8%.

Q: And the viability, T/C (second compound 10 µM, first compound 0.316 µM)?
A: Its viability, T/C is 15.6%.

Q: What about the viability, T/C (second compound 10 µM, first compound 1 µM) of the same compound?
A: The viability, T/C was 16%.

Q: And the viability, T/C (second compound 10 µM, first compound 3.16 µM)?
A: Its viability, T/C is 16.7%.
